23 compounds from ChEMBL document CHEMBL5325506, “Discovery of neo-Clerodane Diterpenoids from Ajuga campylantha as Neuroprotective Agents against Ferroptosis and Neuroinflammation” (J Nat Prod, 2023) can be followed below.

pEC50, pIC50: −log10 of the molar value. The source made the active and inactive calls. The rule behind the calls is not given here.

The test system of series [1] is HT-22. As to the kind of experiment: Cytotoxicity against mouse HT-22 cells assessed as reduction in cell viability at 30 uM incubated for 24 hrs by MTT assay. Format: toxicity, cell-based. The settings on record: ht-22, 24 h. A general note: Tetrazolium assays rely on reduction of a dye to a coloured formazan, in cell work by metabolically active cells.
Series [2] has as its system HT-22. As to the kind of experiment: Inhibition of RSL3-induced ferroptosis in mouse HT-22 cells assessed as increase in cell viability at 30 uM incubated for 24 hrs by MTT assay. Format: functional, cell-based.
In series [3] the test system is BV-2. As to the kind of experiment: Anti-inflammatory activity in mouse BV-2 cells assessed as inhibition of LPS-induced NO accumulation measured after 24 hrs by Griess reagent-based analysis. Format: functional, cell-based. The note with it: BV-2, 24 h.
In series [4] the test system is HT-22. As to the kind of experiment: Inhibition of RSL3-induced ferroptosis in mouse HT-22 cells assessed as increase in cell viability incubated for 24 hrs by MTT assay. Format: functional, cell-based. The settings on record: HT-22, 24 h.
For series [5], the system named is HT-22. As to the kind of experiment: Inhibition of glutamate-induced ferroptosis in mouse HT-22 cells at 30 uM incubated for 24 hrs. Format: functional, cell-based.
The subject of series [6] is HT-22. As to the kind of experiment: Inhibition of RSL3-induced ferroptosis in mouse HT-22 cells assessed as reduction in cytosolic ROS accumulation incubated for 4 hrs by carboxy-H2DCFDA based flow cytometric analysis. Format: functional, cell-based. The note with it: dose 3-30 µM. A general note: A flow cytometer gives signals particle by particle.
In series [7] the test system is HT-22. As to the kind of experiment: Reversal of RSL3-induced morphological changes in mouse HT-22 cells incubated for 24 hrs. Format: functional, cell-based. The note with it: dose 3-30 µM.
Series [8] has as its system HT-22. As to the kind of experiment: Inhibition of TNFalpha/AZD5582/Z-VAD-fmk induced necroptosis in mouse HT-22 cells at 30 uM incubated for 24 hrs. Format: functional, cell-based.
The subject of series [9] is HT-22. As to the kind of experiment: Inhibition of H2O2-induced necrosis in mouse HT-22 cells at 30 uM incubated for 24 hrs. Format: functional, cell-based.
Series [10] relates to HT-22. As to the kind of experiment: Inhibition of RSL3-induced ferroptosis in mouse HT-22 cells assessed as reduction in lipid accumulation incubated for 4 hrs by BODIPY-C11 based flow cytometric analysis. Format: functional, cell-based. The note with it: dose 3-30 µM.
The nature of series [11]: Antioxidant activity assessed as DPPH radical scavenging activity at 100 uM measured after 30 mins by microplate spectrophotometer analysis. Format: functional. In general terms: DPPH is a stable violet radical that fades when it is reduced.
Series [12] has as its system HT-22. As to the kind of experiment: Inhibition of STS-induced apoptosis in mouse HT-22 cells at 30 uM incubated for 24 hrs. Format: functional, cell-based.
Series [13] in a line: Metal chelating activity assessed as Fe2+-compound complex formation at 50 mM in presence of FeSO4 by UV-Visible spectrophotometry.
Series [14] has as its system HT-22. As to the kind of experiment: Inhibition of RSL3-induced ferroptosis in mouse HT-22 cells assessed as downregulation of PTGS2 mRNA expression at 10 to 30 uM incubated for 4 hrs by qRT-PCR analysis. Format: functional, cell-based. The settings on record: dose 10-30 µM.
In series [15] the test system is BV-2. As to the kind of experiment: Cytotoxicity against mouse BV-2 cells assessed as reduction in cell viability at 10 to 30 uM incubated for 24 hrs by MTT assay. Format: toxicity, cell-based. The note with it: bv-2, 24 h, dose 10-30 µM.

Regarding `C=C1CCC[C@@H]2[C@@](C)(CCC3=C[C@H](OCC)OC3=O)[C@H](C)C[C@H](O)[C@@]12C`, in series [1], the Activity result is “Non-Toxic”.
Still for that read-out and setting: with `CC(=O)OC[C@@]1(O)CCC[C@@H]2[C@@](C)(CCc3ccoc3)[C@H](C)C[C@H](O)[C@]21C` the entry was “Non-Toxic”.
For the compound `C[C@@H]1C[C@H](C)C2=C(CO)CCC[C@@H]2[C@@]1(C)CCc1ccoc1`, the inhibition entry in series [2] was “Active”. The Activity entry in [1] was “Non-Toxic”.
Consider `C=C1CCC[C@@H]2[C@@](C)(CCC3=CC(=O)OC3C)[C@H](C)C[C@H](O)[C@@]12C` (stereo partly specified), for which the Activity result in [1] was “Non-Toxic”.
As to `C[C@@H]1C[C@H](O)[C@]2(C)[C@H](CCC[C@@]2(O)CO)[C@@]1(C)CCc1ccoc1`, the inhibition result in series [2] was “Active”. Also, the Activity entry in series [1] is given as “Non-Toxic”.
For `C=C1CCC[C@@H]2[C@@](C)(CC/C(=C/CO)CO)[C@H](C)C[C@H](O)[C@@]12C`, in [1], the Activity entry is “Non-Toxic”.
As a reminder, the pIC50 is the IC50 on a negative log10 scale, so that one unit is a factor of ten. In the case of `Oc1ccc(/C=C/c2cc(O)cc(O)c2)cc1` [RESVERATROL], in series [3], the pIC50 is 4.49.
As for `CCO[C@@H]1C[C@@H]2C(C=O)=C(C)C[C@@H]2O1`, in [1], the Activity result is listed as “Non-Toxic”.
Regarding `COC1C=C(CC[C@@]2(C)[C@H](C)C[C@H](O)[C@]3(COC(C)=O)[C@@H]2CCC[C@]32CO2)C(=O)O1` (stereo partly specified), in series [1], the Activity entry was “Non-Toxic”.
Consider `C[C@@H]1C[C@@H]2OC(=O)[C@@H]3CCC[C@H]([C@@]1(C)CCc1ccoc1)[C@@]23C`, for which, in [1], the Activity entry is reported as “Non-Toxic”.
Same read-out and setting: the result for `CCOC(=O)CC(=O)OC[C@@]1(O)CCC[C@@H]2[C@@](C)(CCc3ccoc3)[C@H](C)C[C@H](O)[C@]21C` reads “Non-Toxic”; that for `C=C1CCC[C@@H]2[C@@](C)(CCC3=C[C@@H](OCC)O[C@@H]3OCC)[C@H](C)C[C@H](O)[C@@]12C`, “Non-Toxic”; that for `C=C1CCC[C@@H]2[C@@](C)(CCC3=CC(=O)OC3)[C@H](C)C[C@H](O)[C@@]12C`, “Non-Toxic”.
The same measure, in the same setting: with `C=C1CCC[C@@H]2[C@@](C)(CC[C@]3(O)[C@@H](OCC)O[C@H](OCC)[C@H]3O)[C@H](C)C[C@H](O)[C@@]12C` the entry was “Non-Toxic”.
As for `C[C@@H]1C[C@H](O)[C@]2(C)[C@H](CCC[C@]2(O)CO)[C@@]1(C)CCc1ccoc1`, in [2], the inhibition entry is “Active”. Moreover, in [1], the Activity result is reported as “Non-Toxic”.
On to `C=C1CCC[C@@H]2[C@@](C)(CCC3=CC(OC)OC3=O)[C@H](C)C[C@H](O)[C@@]12C` (stereo partly specified), for which the negative-log IC50 (pIC50) in series [3] is 4.39. Moreover, in [1], the Activity result was “Non-Toxic”.
Regarding `C=C1CCC[C@@H]2[C@@](C)(CCC3=C[C@@H](OCC)OC3=O)[C@H](C)C[C@H](O)[C@@]12C`, the Activity entry in series [1] is given as “Non-Toxic”.
One may read the pEC50 as −log10 of the EC50, conventionally taken in molar units. Turning to `C[C@@H]1C[C@H](O)[C@]2(C)[C@H](CCC[C@]23CO[C@@](C)(O)O3)[C@@]1(C)CCc1ccoc1`, in series [4], the pEC50 was 5.00. For the same compound, the inhibition entry in series [5] and in [14] was “Active” each time. In addition, the inhibition result in series [6] and in series [10] was “Dose-Dependent Effect” each time. The Activity result in series [7] is “Dose-Dependent Effect”; in series [1], “Non-Toxic”. Moreover, the inhibition entry in [8], in series [9] and in [12] was “inactive” each time. The result in series [11] and in [13] was inactive.
As to `C=C1CCC[C@@H]2[C@@](C)(CCc3ccoc3)[C@H](C)C[C@H](O)[C@@]12C`, in [2], the inhibition result was “Active”. Also, in series [1], the Activity entry is “Non-Toxic”.
Turning to `C=C1CCC[C@@H]2[C@@](C)(CCC3=CC(O)OC3=O)[C@H](C)C[C@H](O)[C@@]12C` (stereo partly specified), in series [1], the Activity entry is “Non-Toxic”.
Take `C=C1CCC[C@H]2[C@@]1(C)C(=O)C[C@@H](C)[C@]2(C)CCC1=CC(OC)OC1=O` (stereo partly specified): the pIC50 in [3] is 5.01. Also, the Activity entry in [1] and in series [15] was “Non-Toxic” in each case.
On to `C=C1CCC[C@@H]2[C@@](C)(CCC3=C[C@H](OCC)O[C@@H]3OCC)[C@H](C)C[C@H](O)[C@@]12C`, for which, in series [1], the Activity entry is given as “Non-Toxic”.
Consider `CC(=O)N(O)CCCCCNC(=O)CCC(=O)N(O)CCCCCNC(=O)CCC(=O)N(O)CCCCCN`, for which, in series [13], the outcome was Active.
